Measured values published in US20240150293A1, “SPIROCYCLOHEXANE DERIVATIVES, PHARMACEUTICAL COMPOSITIONS CONTAINING THEM AND THEIR USES AS ANTI-APOPTOTIC INHIBITORS” (LES LABORATOIRES SERVIER, priority 2021, published 2024).
Read-outs that look alike come from different tables or passages of the source.

Legend:
[1] = biological target: Cy5-labelled Mcl1 (amino acids 171-321) C286S protein (UniProtKB Q07820) (Homo sapiens (Human), UniProt Q07820, C286S); experiment: Inhibition of Mcl-1 by the fluorescence quenching assay (Example A, Method B); format: binding
Cy5-labelled Mcl1 (amino acids 171-321) C286S protein, sequence (Q07820 171-321 C286S): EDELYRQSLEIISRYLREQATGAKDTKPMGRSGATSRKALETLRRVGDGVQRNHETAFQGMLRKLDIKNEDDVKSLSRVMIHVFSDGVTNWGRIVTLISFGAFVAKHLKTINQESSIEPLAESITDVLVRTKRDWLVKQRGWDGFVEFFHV
Method in brief: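 Cy5-labelled Mcl1 171-321 C286S (1 nM) quenched by TQ5WS-labelled PUMA peptide (10, 20 or 400 nM); displacement raises fluorescence (Ex 620/Em 680 nm). Buffer 10 mM HEPES, 150 mM NaCl, 0.05% Tween 20, pH 7.4, 5% DMSO; 2 h at room temperature, 11-point curves, IC50 converted to Ki (cKi/eKi).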

[2] = tested on: H929 multiple myeloma tumor line; experiment: In vitro cytotoxicity, MTT assay (Example B, Method A); format: cell-based; conditions: H929 cells, 48 hours exposure, read-out: C50
Protocol: The cytotoxicity studies were carried out on the H929 multiple myeloma tumor line.
The cells are distributed onto microplates and exposed to the test compounds for 48 hours. The cell viability is then quantified by a colorimetric assay, the Microculture Tetrazolium Assay (Carmichael et al, Cancer Res. 1987, 47, 939-942).
The results are expressed in C50 which means concentration corresponding to […] of effect/inhibition.

| Ki [1] | Compound | IC50 ([2]; Homo sapiens, NCI-H929, 48 h) | IC50 [2] |
| --- | --- | --- | --- |
| 29.9 nM | C[C@@H](COc1ccnc2c1[C@@H](C)CC[C@@H]2O)C[C@H]1Cc2ccccc2[C@]12CC[C@@](Nc1cccc(Cl)c1)(C(=O)O)CC2 [Example 675, (1r,2′S,4S)-4-(3-chloroanilino)-2′-[(2R)-3-{[(5S,8S)-8-hydroxy-5-methyl-5,6,7,8-tetrahydroquinolin-4-yl]oxy}-2-methylpropyl]-2′,3′-dihydrospiro[cyclohexane-1,1′-indene]-4-carboxylic acid] | 6980 nM | – |
| 0.418 nM | C[C@@H](COc1ccnc2c1[C@H](C)CC[C@H]2O)C[C@H]1Cc2ccccc2[C@]12CC[C@@](Nc1cccc(Cl)c1)(C(=O)O)CC2 [Example 676, (1r,2′S,4S)-4-(3-chloroanilino)-2′-[(2R)-3-{[(5R,8R)-8-hydroxy-5-methyl-5,6,7,8-tetrahydroquinolin-4-yl]oxy}-2-methylpropyl]-2′,3′-dihydrospiro[cyclohexane-1,1′-indene]-4-carboxylic acid] | – | 65.6 nM |
| 1.18 nM | C[C@@H](COc1ccnc2c1[C@H](C)CC=C2)C[C@H]1Cc2ccccc2[C@]12CC[C@@](Nc1cccc(Cl)c1)(C(=O)O)CC2 [Example 677, (1r,2′S,4S)-4-(3-chloroanilino)-2′-[(2R)-2-methyl-3-{[(5R)-5-methyl-5,6-dihydroquinolin-4-yl]oxy}propyl]-2′,3′-dihydrospiro[cyclohexane-1,1′-indene]-4-carboxylic acid] | 245 nM | – |
| 221 nM | CC[C@H]1CC[C@H](O)c2nccc(OC[C@H](C)C[C@H]3Cc4ccccc4[C@]34CC[C@@](Nc3cccc(Cl)c3)(C(=O)O)CC4)c21 [Example 678, (1r,2′S,4S)-4-(3-chloroanilino)-2′-[(2R)-3-{[(5S,8S)-5-ethyl-8-hydroxy-5,6,7,8-tetrahydroquinolin-4-yl]oxy}-2-methylpropyl]-2′,3′-dihydrospiro[cyclohexane-1,1′-indene]-4-carboxylic acid] | 9630 nM | – |
| 2.32 nM | CC[C@@H]1CC[C@@H](O)c2nccc(OC[C@H](C)C[C@H]3Cc4ccccc4[C@]34CC[C@@](Nc3cccc(Cl)c3)(C(=O)O)CC4)c21 [Example 679, (1r,2′S,4S)-4-(3-chloroanilino)-2′-[(2R)-3-{[(5R,8R)-5-ethyl-8-hydroxy-5,6,7,8-tetrahydroquinolin-4-yl]oxy}-2-methylpropyl]-2′,3′-dihydrospiro[cyclohexane-1,1′-indene]-4-carboxylic acid] | 199 nM | – |
| 2.09 nM | C[C@@H](COc1ccnc2c1CCC[C@@H]2F)C[C@H]1Cc2ccccc2[C@]12CC[C@@](Nc1cccc(Cl)c1)(C(=O)O)CC2 [Example 680, (1r,2′S,4S)-4-(3-chloroanilino)-2′-[(2R)-3-{[(8S)-8-fluoro-5,6,7,8-tetrahydroquinolin-4-yl]oxy}-2-methylpropyl]-2′,3′-dihydrospiro[cyclohexane-1,1′-indene]-4-carboxylic acid] | 687 nM | – |
| 3.26 nM | C[C@@H](COc1ccnc2c1CCC[C@H]2F)C[C@H]1Cc2ccccc2[C@]12CC[C@@](Nc1cccc(Cl)c1)(C(=O)O)CC2 [Example 681, (1r,2′S,4S)-4-(3-chloroanilino)-2′-[(2R)-3-{[(8R)-8-fluoro-5,6,7,8-tetrahydroquinolin-4-yl]oxy}-2-methylpropyl]-2′,3′-dihydrospiro[cyclohexane-1,1′-indene]-4-carboxylic acid] | 1160 nM | – |
| 45.5 nM | C[C@@H](COc1ccnc2c1CCC/C2=C\F)C[C@H]1Cc2ccccc2[C@]12CC[C@@](Nc1cccc(Cl)c1)(C(=O)O)CC2 [Example 684, (1r,2′S,4S)-4-(3-chloroanilino)-2′-[(2R)-3-{[(8E)-8-(fluoromethylidene)-5,6,7,8-tetrahydroquinolin-4-yl]oxy}-2-methylpropyl]-2′,3′-dihydrospiro[cyclohexane-1,1′-indene]-4-carboxylic acid] | 5850 nM | – |
| 4.25 nM | C[C@@H](COc1ccnc2c1[C@@H](C)CC[C@H]2F)C[C@H]1Cc2ccccc2[C@]12CC[C@@](Nc1cccc(Cl)c1)(C(=O)O)CC2 [Example 687, (1r,2′S,4S)-4-(3-chloroanilino)-2′-[(2R)-3-{[(5R,8S)-8-fluoro-5-methyl-5,6,7,8-tetrahydroquinolin-4-yl]oxy}-2-methylpropyl]-2′,3′-dihydrospiro[cyclohexane-1,1′-indene]-4-carboxylic acid] | 600 nM | – |
| 0.965 nM | C[C@@H](COc1ccnc2c1[C@H](C)CC[C@@H]2F)C[C@H]1Cc2ccccc2[C@]12CC[C@@](Nc1cccc(Cl)c1)(C(=O)O)CC2 [Example 688, (1r,2′S,4S)-4-(3-chloroanilino)-2′-[(2R)-3-{[(5S,8R)-8-fluoro-5-methyl-5,6,7,8-tetrahydroquinolin-4-yl]oxy}-2-methylpropyl]-2′,3′-dihydrospiro[cyclohexane-1,1′-indene]-4-carboxylic acid] | 234 nM | – |
| 1.46 nM | C[C@@H](COc1ccnc2c1[C@H](C)CC[C@H]2F)C[C@H]1Cc2ccccc2[C@]12CC[C@@](Nc1cccc(Cl)c1)(C(=O)O)CC2 [Example 689, (1r,2′S,4S)-4-(3-chloroanilino)-2′-[(2R)-3-{[(5R,8R)-8-fluoro-5-methyl-5,6,7,8-tetrahydroquinolin-4-yl]oxy}-2-methylpropyl]-2′,3′-dihydrospiro[cyclohexane-1,1′-indene]-4-carboxylic acid] | 117 nM | – |
| 29.5 nM | C[C@@H](COc1ccnc2c1[C@@H](C)CC[C@@H]2F)C[C@H]1Cc2ccccc2[C@]12CC[C@@](Nc1cccc(Cl)c1)(C(=O)O)CC2 [Example 690, (1r,2′S,4S)-4-(3-chloroanilino)-2′-[(2R)-3-{[(5S,8S)-8-fluoro-5-methyl-5,6,7,8-tetrahydroquinolin-4-yl]oxy}-2-methylpropyl]-2′,3′-dihydrospiro[cyclohexane-1,1′-indene]-4-carboxylic acid] | 1410 nM | – |
| 10.9 nM | C[C@@H](COc1ccnc2c1C(OC(F)F)CCC2)C[C@H]1Cc2ccccc2[C@]12CC[C@@](Nc1cccc(Cl)c1)(C(=O)O)CC2 (stereo partly drawn) [Example 691, (1r,2′S,4S)-4-(3-chloroanilino)-2′-[(2R)-3-{[5-(difluoromethoxy)-5,6,7,8-tetrahydroquinolin-4-yl]oxy}-2-methylpropyl]-2′,3′-dihydrospiro[cyclohexane-1,1′-indene]-4-carboxylic acid] | 806 nM | – |
| 1.75 nM | C[C@@H](COc1ccnc2c1[C@H](C)CCC2(F)F)C[C@H]1Cc2ccccc2[C@]12CC[C@@](Nc1cccc(Cl)c1)(C(=O)O)CC2 [Example 692, (1r,2′S,4S)-4-(3-chloroanilino)-2′-[(2R)-3-{[(5R)-8,8-difluoro-5-methyl-5,6,7,8-tetrahydroquinolin-4-yl]oxy}-2-methylpropyl]-2′,3′-dihydrospiro[cyclohexane-1,1′-indene]-4-carboxylic acid] | 132 nM | – |
| 3.7 nM | C[C@@H](COc1ccnc2c1C(F)(F)CCC2)C[C@H]1Cc2ccccc2[C@]12CC[C@@](Nc1cccc(Cl)c1)(C(=O)O)CC2 [Example 693, (1r,2′S,4S)-4-(3-chloroanilino)-2′-{(2R)-3-[(5,5-difluoro-5,6,7,8-tetrahydroquinolin-4-yl)oxy]-2-methylpropyl}-2′,3′-dihydrospiro[cyclohexane-1,1′-indene]-4-carboxylic acid] | 527 nM | – |
| 100 nM | C[C@@H](COc1ccnc2c1[C@@H](CC(F)(F)F)CCC2)C[C@H]1Cc2ccccc2[C@]12CC[C@@](Nc1cccc(Cl)c1)(C(=O)O)CC2 [Example 694, (1r,2′S,4S)-4-(3-chloroanilino)-2′-[(2R)-2-methyl-3-{[(5R)-5-(2,2,2-trifluoroethyl)-5,6,7,8-tetrahydroquinolin-4-yl]oxy}propyl]-2′,3′-dihydrospiro[cyclohexane-1,1′-indene]-4-carboxylic acid] | 6290 nM | – |
| 29.6 nM | C[C@@H](COc1ccnc2c1[C@H](CC(F)(F)F)CCC2)C[C@H]1Cc2ccccc2[C@]12CC[C@@](Nc1cccc(Cl)c1)(C(=O)O)CC2 [Example 695, (1r,2′S,4S)-4-(3-chloroanilino)-2′-[(2R)-2-methyl-3-{[(5S)-5-(2,2,2-trifluoroethyl)-5,6,7,8-tetrahydroquinolin-4-yl]oxy}propyl]-2′,3′-dihydrospiro[cyclohexane-1,1′-indene]-4-carboxylic acid] | 3240 nM | – |
| 103 nM | CC[C@H]1CC[C@H](F)c2nccc(OC[C@H](C)C[C@H]3Cc4ccccc4[C@]34CC[C@@](Nc3cccc(Cl)c3)(C(=O)O)CC4)c21 [Example 696, (1r,2′S,4S)-4-(3-chloroanilino)-2′-[(2R)-3-{[(5S,8S)-5-ethyl-8-fluoro-5,6,7,8-tetrahydroquinolin-4-yl]oxy}-2-methylpropyl]-2′,3′-dihydrospiro[cyclohexane-1,1′-indene]-4-carboxylic acid] | 5070 nM | – |
| 8.28 nM | CC[C@@H]1CC[C@@H](F)c2nccc(OC[C@H](C)C[C@H]3Cc4ccccc4[C@]34CC[C@@](Nc3cccc(Cl)c3)(C(=O)O)CC4)c21 [Example 697, (1r,2′S,4S)-4-(3-chloroanilino)-2′-[(2R)-3-{[(5R,8R)-5-ethyl-8-fluoro-5,6,7,8-tetrahydroquinolin-4-yl]oxy}-2-methylpropyl]-2′,3′-dihydrospiro[cyclohexane-1,1′-indene]-4-carboxylic acid] | 374 nM | – |
